From US9315546B2, “Growth hormone secretatogue receptor antagonists and uses thereof” (The Administrators of the Tulane Educational Fund, priority 2010, dated 2016)
Blank lines part the entries; values can stand above or below the compound they belong to. Where a SMILES comes first, the peptide text is derived from it. Where no end group is shown, it is not given here. [ ]: non-standard residue; d: D form. The star is where a group is joined. d2Nal = N[C@H](Cc1ccc2ccccc2c1)C(=O)O; Octanoyl = CCCCCCCC(=O)*; Dap = NC[C@H](N)C(=O)O

Tests used:
GOAT = molecular target: T1, GOAT (Homo sapiens, UniProt Q96T53); experiment: Acyl Transferase activity of GOAT in vitro; assay type: biochemical
T1 sequence (Q96T53 1-435): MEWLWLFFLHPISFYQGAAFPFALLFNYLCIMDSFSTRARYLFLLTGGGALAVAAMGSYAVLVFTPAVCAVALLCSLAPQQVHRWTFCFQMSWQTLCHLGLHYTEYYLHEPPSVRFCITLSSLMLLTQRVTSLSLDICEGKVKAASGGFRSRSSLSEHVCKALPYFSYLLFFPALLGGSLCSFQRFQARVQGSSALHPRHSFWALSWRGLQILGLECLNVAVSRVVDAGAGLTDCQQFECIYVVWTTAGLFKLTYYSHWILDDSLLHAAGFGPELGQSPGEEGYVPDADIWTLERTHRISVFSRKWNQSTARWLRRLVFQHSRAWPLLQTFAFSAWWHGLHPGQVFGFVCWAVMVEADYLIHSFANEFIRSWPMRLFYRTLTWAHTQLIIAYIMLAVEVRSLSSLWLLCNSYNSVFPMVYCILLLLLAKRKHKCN

[1] = molecular target: T2, hypothalamic ghrelin receptor (Rattus norvegicus, UniProt O08725); experiment: Spontaneous and ghrelin-stimulated GH secretion after icv ghrelin analogs in adult male rats; assay type: in vivo; parameters: from tissue; host or cells: whole animal (adult male rats); settings: for spontaneous growth hormone secretion / plasma GH levels: ghrelin analog 10 μg icv, 6-h sampling
Protocol: (§1) In vivo effects were measured on spontaneous and ghrelin-stimulated GH secrtion over a 6-h sampling period, and food intake monitored hourly over a 5-h period and body weight change over 24 h.

[2] = molecular target: T2, hypothalamic ghrelin receptor; experiment: Food intake and body weight change after icv ghrelin analogs in adult male rats; assay type: in vivo; parameters: from tissue; host or cells: whole animal (adult male rats); settings: ghrelin analog 10 μg icv; for body weight gain: change over 24 h; for (cumulative) food intake: monitored hourly over 5 h
Protocol: as §1

GHS-R 1a [3] = molecular target: T3, GHS-R 1a (Rattus norvegicus, UniProt O08725); experiment: Ghrelin-induced GH release in free-moving adult male rats; assay type: in vivo; settings: for GH response to i.c.v. ghrelin: 5 μg antagonist i.c.v. 15 min before 500 ng ghrelin i.c.v.
T3 construct: free-moving rats were i.c.v. injected with either normal saline or GHS-A (5 μg); from tissue; host or cells: whole animal (adult male Sprague Dawley rats)
Protocol: Adult male Sprague Dawley rats (225-260 g) were purchased from Charles River Canada (St. Constant, Canada) and individually housed on a 12-h light, 12-h dark cycle (lights on, 0600-1800 h) in a temperature (22±1° C.)—and humidity-controlled room. Purina rat chow (Ralston Purina Co., St. Louis, Mo.) and tap water were available ad libitum. Chronic intracerebroventricular (i.c.v.) and intracardiac venous cannulas were implanted under sodium pentobarbital (50 mg/kg, i.p.) anesthesia using previously described techniques in (2) and (11). […] During this time the rats were handled daily to minimize any stress associated with handling on the day of the experiment. On the test day, food was removed 1.5 h before the start of sampling and was returned at the end. […] Both the human ghrelin peptide (provided by Dr. K. Chang, Phoenix Pharmaceuticals, Inc., Belmont, Calif.) and the GHS-A were diluted in normal saline just before use. Blood samples (0.35 ml) were withdrawn every 15 min over a 6-h sampling period (1000-1600 h) from all animals. […] All blood samples were immediately centrifuged, and plasma was separated and stored at −20° C. for subsequent assay of GH. To avoid hemodynamic disturbance, the red blood cells were resuspended in normal saline and returned to the animal after removal of the next blood sample. […] Blood samples were withdrawn from 1000-1600 h, as described above.

GHS-R 1a [4] = molecular target: T3, GHS-R 1a; experiment: Spontaneous and ghrelin-induced food intake in rats; assay type: in vivo
Protocol: The effects of the GHS-A on both spontaneous and ghrelin-induced food intake and body weight gain were investigated. For the spontaneous experiments, the rats were fasted overnight (1600-1100 h next morning) and were i.c.v.-injected with either normal saline or GHS-A (5 μg) at 1100 h. Food intake was monitored on an hourly basis for 5 h after the initial injection (until 1600 h) and subsequently overnight (1600-0900 h next morning). A measured amount of rat chow pellets was placed in the cage every hour. Spillage was collected by placement of a diaper under the rat cages, and total food consumed for each period was calculated by subtracting uneaten food plus spillage from total given. Body weights were recorded daily at 0900 h. The latency to the onset of the first meal after the injection and the duration of that meal were also monitored.
Food intake was monitored on an hourly basis as described above. In this experiment, food was removed 1.5 h before the start of the test.

GHRH = experiment: GH response to GHRH in rats; assay type: in vivo, rat; settings: GHRH 5 μg i.v.
GHS-R 1a [5] = molecular target: T3, GHS-R 1a; experiment: Spontaneous pulsatile GH secretion in free-moving adult male rats; assay type: in vivo
Protocol: Adult male Sprague Dawley rats (225-260 g) were purchased from Charles River Canada (St. Constant, Canada) and individually housed on a 12-h light, 12-h dark cycle (lights on, 0600-1800 h) in a temperature (22±1° C.)—and humidity-controlled room. Purina rat chow (Ralston Purina Co., St. Louis, Mo.) and tap water were available ad libitum.
Chronic intracerebroventricular (i.c.v.) and intracardiac venous cannulas were implanted under sodium pentobarbital (50 mg/kg, i.p.) anesthesia using previously described techniques in (2) and (11). The placement of the icy cannulae was verified by both a positive drinking response to i.c.v. carbachol (100 ng/10 μl) injection on the day after surgery and methylene blue dye at the time of death. After surgery, the rats were placed directly in isolation test chambers with food and H2O freely available until body weight returned to preoperative levels (usually within 5-7 d). During this time the rats were handled daily to minimize any stress associated with handling on the day of the experiment. On the test day, food was removed 1.5 h before the start of sampling and was returned at the end.
These time points were chosen because they correspond closely to the time of onset of the spontaneous GH secretory episodes, as previously documented in our laboratory (2, 4). Blood samples were withdrawn from 1000-1600 h, as described above; however, no blood sample was withdrawn 5 min after the injections.

[6] = molecular target: Ghrelin/GHRP/GHS Receptor (Rattus norvegicus, UniProt O08725); experiment: In vivo GH release in rat after i.v. peptide (serum GH by RIA)
Protocol: For the in vivo assay of GH Release in rat, immature female Sprague Dawley rats were obtained from Charles River from Wilmington, Mass. After arrival they were housed at 25° C. with a 14:10 h light:dark cycle. Water and Purina rat chow were available at libitum. Pups were weaned at 21 days of age.
Immature twenty six day old female Sprague Dawley rats, 3-6 rats per treatment dose, were pretreated with pentobarbital 20 minutes before iv injection of vehicle/peptide or peptide plus stimulator. Injection was made as a 0.1 ml solution. For the non-pentobarbital treated rat assay, peptides were administered iv into the tail vein of conscious rats. All animals were sacrificed by guillotine after iv peptide or vehicle. Trunk blood was collected at +10-15 minutes […], allowed to clot, centrifuged and serum stored until assayed for GH levels by RIA. The GH RIA reagents were distributed by the NIH. Control data was collected from rats treated with only the corresponding vehicle in the absence of peptide or stimulator. Control stimulated data was collected from rats treated with stimulator alone in the absence of any peptide.

[7] = listed as Gly-Met-Ala-Gly-Ser-(Dap-Oct)-Phe-Leu-Ser-Pro-Glu-His-NH2
[8] = listed as GMA{Dap^3Oct}ghrelinNH2 1-9
[9] = 5 μg i.c.v. before ghrelin 500 ng i.c.v.
[10] = 5 μg i.c.v., overnight-fasted animals

T2 sequence (O08725 whole entry): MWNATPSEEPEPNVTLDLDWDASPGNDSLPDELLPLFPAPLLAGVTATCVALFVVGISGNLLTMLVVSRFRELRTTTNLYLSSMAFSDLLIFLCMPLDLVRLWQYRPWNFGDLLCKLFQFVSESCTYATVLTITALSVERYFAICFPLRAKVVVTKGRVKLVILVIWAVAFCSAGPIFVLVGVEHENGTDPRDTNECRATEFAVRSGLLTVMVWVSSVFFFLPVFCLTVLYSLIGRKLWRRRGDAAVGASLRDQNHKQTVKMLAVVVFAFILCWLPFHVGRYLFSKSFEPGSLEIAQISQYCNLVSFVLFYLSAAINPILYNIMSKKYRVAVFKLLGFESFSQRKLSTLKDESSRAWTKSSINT
T3 sequence (O08725 whole entry): as above
Ghrelin/GHRP/GHS Receptor, sequence (O08725 whole entry): as above

inhibition of the Acyl Transferase activity of GOAT (GOAT): ineffective | decrease in mean plasma GH levels compared with controls ([1]; central administration): 3-to-4 fold | spontaneous growth hormone secretion / plasma GH levels [1]: inhibited growth hormone secretion | spontaneous growth hormone secretion / plasma GH levels ([1]; listed as GMA duodecapeptide ghrelin analog): inhibitory activity | spontaneous growth hormone secretion / plasma GH levels [1, 7]: inhibited | stimulatory action of ghrelin on GH release after pretreatment ([1]; pretreatment with analog): blocked
Compound: CCCCCCCC(=O)NC[C@H](NC(=O)[C@H](CO)NC(=O)CNC(=O)[C@H](C)NC(=O)[C@H](CCSC)NC(=O)CN)C(=O)N[C@@H](Cc1ccccc1)C(=O)N[C@@H](CC(C)C)C(=O)N[C@@H](CO)C(=O)N1CCC[C@H]1C(=O)N[C@@H](CCC(=O)O)C(=O)N[C@@H](Cc1c[nH]cn1)C(N)=O [#3, Gly-Met-Ala-Gly-Ser-(Dap-Oct)-Phe-Leu-Ser-Pro-Glu-His-NH2] (H-GMAGS[Dap](Octanoyl)FLSPEH-NH2; N-terminus assumed)
body weight gain [2, 8]: inhibits | body weight gain ([2]; listed as duodecapeptide): effective | (cumulative) food intake [2]: inhibited food intake | (cumulative) food intake [2, 8]: inhibits | (cumulative) food intake [2, 7]: reduced | (cumulative) food intake ([2]; listed as duodecapeptide): effective

GH response to i.c.v. ghrelin (GHS-R 1a [3]): virtually obliterated | GH response to i.c.v. ghrelin (GHS-R 1a [3]; listed as GHS-A): abolished | reduction of GH AUC following i.c.v. ghrelin vs saline-pretreated controls (GHS-R 1a [3]; 5 μg i.c.v. pretreatment, ghrelin 500 ng i.c.v.): 15 fold | GH response to i.v. ghrelin (GHS-R 1a [3]; 250 μg antagonist i.v. 15 min before 5 μg ghrelin i.v., listed as GHS-A): strongly blocked | reduction of GH AUC following i.v. ghrelin vs saline-pretreated controls (GHS-R 1a [3]; 250 μg i.v. pretreatment, ghrelin 5 μg i.v.): 5 fold | cumulative food intake after ghrelin, up to 5 h (GHS-R 1a [4]; [9]): significantly suppressed | ghrelin-stimulated food intake, first hour after injections (GHS-R 1a [4]; [9]): significantly inhibited | cumulative spontaneous food intake beyond the first hour (GHS-R 1a [4]; [10]): not inhibited | spontaneous food intake, first hour after injection (GHS-R 1a [4]; [10]): significantly inhibited | 1-h GH AUC's of spontaneous GH secretory episodes (1100 h, 1400 h) and overall 6-h GH AUC (GHS-R 1a [5]; 5 μg i.c.v.): significantly reduced | GH peak frequency, interpeak interval and nadir (cluster analysis) (GHS-R 1a [5]; 5 μg i.c.v.): no significant effect | GH peak height (cluster analysis) (GHS-R 1a [5]; 5 μg i.c.v.): significant suppression | amplitude of the spontaneous GH pulses (GHS-R 1a [5]; 5 μg i.c.v. 15 min before expected GH bursts): severely attenuated | Stimulated GH release ([6]; peptide antagonist 30 μg i.v. + stimulator 0.3 μg): 733 ± 85 ng/mL | Stimulated GH release ([6]; peptide antagonist 100 μg i.v. + stimulator 1 μg): 818 ± 269 ng/mL
Compound: H[d2Nal][dK]W[dF]K-NH2 [4-His-DβNal-DLys-Trp-DPhe-Lys-NH2]
GH response to GHRH (GHRH): did not significantly reduce
